The results in this text go back to patent US20220056019A1, “FARNESOID X RECEPTOR AGONISTS AND USES THEREOF” (Metacrine, Inc., priority 2018, published 2022).

As usually defined, the EC50 is the concentration at which the effect is half-maximal. Read a low EC50 as an effect from little substance.

This test has as its target T1, hFXR (Homo sapiens, UniProt Q96RI1).
T1 construct: expressed in transfected cells; host or cells: CV-1 cells
T1 sequence (Q96RI1 1-486): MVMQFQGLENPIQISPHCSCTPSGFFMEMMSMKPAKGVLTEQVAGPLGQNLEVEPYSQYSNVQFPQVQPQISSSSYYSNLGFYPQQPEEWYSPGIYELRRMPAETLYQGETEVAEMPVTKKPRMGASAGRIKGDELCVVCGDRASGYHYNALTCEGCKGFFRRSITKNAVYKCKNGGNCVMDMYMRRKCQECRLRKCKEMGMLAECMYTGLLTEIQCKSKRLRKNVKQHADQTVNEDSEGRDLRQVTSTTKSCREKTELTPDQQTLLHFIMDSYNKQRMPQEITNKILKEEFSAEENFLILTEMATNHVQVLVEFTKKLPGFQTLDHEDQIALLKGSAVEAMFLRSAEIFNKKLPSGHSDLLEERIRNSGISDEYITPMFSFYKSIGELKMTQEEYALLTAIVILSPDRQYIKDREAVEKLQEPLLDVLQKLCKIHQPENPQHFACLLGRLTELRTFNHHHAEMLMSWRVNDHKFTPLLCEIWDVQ
T1 sequence (P19793 1-462 partner): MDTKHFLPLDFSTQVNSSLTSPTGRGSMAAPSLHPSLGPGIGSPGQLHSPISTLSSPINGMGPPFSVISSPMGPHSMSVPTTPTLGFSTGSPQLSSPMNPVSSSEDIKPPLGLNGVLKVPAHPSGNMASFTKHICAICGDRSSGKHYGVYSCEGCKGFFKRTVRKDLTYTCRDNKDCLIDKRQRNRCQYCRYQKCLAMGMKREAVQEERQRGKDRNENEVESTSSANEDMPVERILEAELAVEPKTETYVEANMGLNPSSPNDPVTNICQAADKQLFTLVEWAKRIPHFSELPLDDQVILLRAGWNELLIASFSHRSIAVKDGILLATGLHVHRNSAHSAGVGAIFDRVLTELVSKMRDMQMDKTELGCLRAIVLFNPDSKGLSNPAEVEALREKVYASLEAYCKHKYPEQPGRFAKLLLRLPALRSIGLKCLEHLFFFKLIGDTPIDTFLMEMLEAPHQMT
The experiment in a line: In Vitro FXR Assay (TK): TK-ECRE-luc reporter in transfected CV-1 cells. The class given is cell-based. The note with it: 18 hrs incubation, luminescence. An outline of the steps:
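Luminescence from a TK-ECRE-luc reporter was read after 18 h of compound exposure in CV-1 cells. These cells were grown in charcoal-stripped FBS medium and transiently transfected with hFXR, hRXR and YFP expression plasmids.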
`COc1ccc([C@H]2CC[C@H](CN(c3cccc(-c4cnn(C(C)C)c4)c3)C(=O)[C@H]3CC[C@H](NC(=O)OC4CN(C)C4)CC3)CC2)cc1C` [Compound 6.07, 1-Methylazetidin-3-yl (trans-4-((3-(1-isopropyl-1H-pyrazol-4-yl)phenyl)((trans-4-(4-methoxy-3-methylphenyl)cyclohexyl)meth-yl)carbamoyl)cyclohexyl)carbamate] had an EC50 of 50 to 1000 nM. The result for `COc1ccc([C@H]2CC[C@H](CN(c3cccc(-c4cnn(C(C)C)c4)c3)C(=O)[C@H]3CC[C@H](NC(=O)OC4CCN(C)CC4)CC3)CC2)cc1C` [Compound 6.08, 1-Methylpiperidin-4-yl (trans-4-((3-(1-isopropyl-1H-pyrazol-4-yl)phenyl)((trans-4-(4-methoxy-3-methylphenyl)cyclohexyl)meth-yl)carbamoyl)cyclohexyl)carbamate] reads 50 to 1000 nM; that for `COc1ccc(C23CCC(CN(c4cc(-c5cnn(C(C)C)c5)ccn4)C(=O)[C@H]4CC[C@H](NC(=O)OCCO)CC4)(CC2)CC3)cc1C` [Compound 7, (trans)-2-Hydroxyethyl (4-((4-(1-isopropyl-1H-pyrazol-4-yl)pyridine-2-yl)((4-(4-methoxy-3-methylphenyl)bicyclo[2.2.2]octan-1-yl)methyl)carbamoyl)cyclohexyl)carbamate], no more than 50 nM.

As to `COCCOC(=O)N[C@H]1CC[C@H](C(=O)N(CC23CCC(c4ccc(OC)c(C)c4)(CC2)CC3)c2cc(-c3cnn(C(C)C)c3)ccn2)CC1` [Compound 7.01, (trans)-2-Methoxyethyl (4-((4-(1-isopropyl-1H-pyrazol-4-yl)pyridin-2-yl)((4-(4-methoxy-3-methylphenyl)bicyclo[2.2.2]octan-1-yl)methyl)carbamoyl)cyclohexyl) carbamate], the EC50 is no more than 50 nM. As for `COc1ccc(C23CCC(CN(c4cc(-c5cnn(C(C)C)c5)ccn4)C(=O)[C@H]4CC[C@H](NC(=O)OC5COC5)CC4)(CC2)CC3)cc1C` [Compound 7.02, (trans)-Oxetan-3-yl (4-((4-(1-isopropyl-1H-pyrazol-4-yl)pyridin-2-yl)((4-(4-methoxy-3-methylphenyl)bicyclo[2.2.2]octan-1-yl)methyl)carbamoyl)cyclohexyl) carbamate], the figure is no more than 50 nM; as for `COc1ccc(C23CCC(CN(c4cc(-c5cnn(C(C)C)c5)ccn4)C(=O)[C@H]4CC[C@H](NC(=O)OC5CCOCC5)CC4)(CC2)CC3)cc1C` [Compound 7.03, (trans)-Tetrahydro-2H-pyran-4-yl (4-((4-(1-isopropyl-1H-pyrazol-4-yl)pyridin-2-yl)((4-(4-methoxy-3-methylphenyl)bicyclo[2.2.2]octan-1-yl)methyl)carbamoyl)cyclohexyl) carbamate], no more than 50 nM; as for `COC(=O)N[C@H]1CC[C@H](C(=O)N(CC23CCC(c4ccc(OC)c(C)c4)(CC2)CC3)c2cc(-c3cnn(C(C)C)c3)ccn2)CC1` [Compound 8, Methyl trans-(4-((4-(1-isopropyl-1H-pyrazol-4-yl)pyridin-2-yl)((4-(4-methoxy-3-methylphenyl)bicyclo[2.2.2]octan-1-yl)methyl)carbamoyl)cyclohexyl)carbamate], no more than 50 nM. The result for `CCOC(=O)N[C@H]1CC[C@H](C(=O)N(CC23CCC(c4ccc(OC)c(C)c4)(CC2)CC3)c2cc(-c3cnn(C(C)C)c3)ccn2)CC1` [Compound 8.01, (trans)-Ethyl (4-((4-(1-isopropyl-1H-pyrazol-4-yl)pyridin-2-yl)((4-(4-methoxy-3-methylphenyl)bicyclo[2.2.2]octan-1-yl)methyl)carbamoyl)cyclohexyl)car-bamate] reads no more than 50 nM. Regarding `COc1ccc(C23CCC(CN(c4cc(-c5cnn(C(C)C)c5)ccn4)C(=O)[C@H]4CC[C@H](NC(=O)OC(C)C)CC4)(CC2)CC3)cc1C` [Compound 8.02, (trans)-Isopropyl (4-((4-(1-isopropyl-1H-pyrazol-4-yl)pyridin-2-yl)((4-(4-methoxy-3-methylphenyl)bicyclo[2.2.2]octan-1-yl)methyl)carbamoyl)cyclohexyl)car-bamate], the concentration for a half-maximal effect (EC50) is no more than 50 nM. As for `COc1ccc(C23CCC(CN(c4cc(-c5cnc(C(C)C)s5)ccn4)C(=O)[C@H]4CC[C@H](NC(=O)CO)CC4)(CC2)CC3)cc1C` [Compound 9, (trans)-4-(2-Hydroxyacetamido)-N-(4-(2-isopropylthiazol-5-yl)pyridin-2-yl)-N-((4-(4-methoxy-3-methylphenyl)bicyclo[2.2.2]octan-1-yl)methyl)cyclohexanecarboxamide], the figure is no more than 50 nM. As for `COCC(=O)N[C@H]1CC[C@H](C(=O)N(CC23CCC(c4ccc(OC)c(C)c4)(CC2)CC3)c2cc(-c3cnn(C(C)C)c3)ccn2)CC1` [Compound 9.01, trans-N-(4-(1-Isopropyl-1H-pyrazol-4-yl)pyridin-2-yl)-N-((4-(4-methoxy-3-methylphenyl)bicyclo[2.2.2]octan-1-yl)methyl)-4-(2-methoxyacetamido)cyclohexanecar-boxamide], the figure is no more than 50 nM.

For the compound `COc1ccc(C23CCC(CN(c4cc(-c5cnn(C(C)C)c5)ccn4)C(=O)[C@H]4CC[C@H](NC(=O)CO)CC4)(CC2)CC3)cc1C` [Compound 9.02, trans-4-(2-Hydroxyacetamido)-N-(4-(1-isopropyl-1H-pyrazol-4-yl)pyridin-2-yl)-N-((4-(4-methoxy-3-methylphenyl)bicyclo[2.2.2]octan-1-yl)methyl)cyclohexanecarboxamide], the EC50 is no more than 50 nM.

`COc1ccc(C23CCC(CN(c4cc(-c5cnn(C(C)C)c5)ccn4)C(=O)[C@H]4CC[C@H](NC(=O)C(C)(C)O)CC4)(CC2)CC3)cc1C` [Compound 9.03]: the EC50 is no more than 50 nM.

The compound `COc1ccc(C23CCC(CN(c4cc(-c5cnc(C(C)C)s5)ccn4)C(=O)[C@H]4CC[C@H](NC(C)=O)CC4)(CC2)CC3)cc1C` [Compound 9.04, (trans)-4-Acetamido-N-(4-(2-isopropylthiazol-5-yl)pyridin-2-yl)-N-((4-(4-methoxy-3-methylphenyl)bicyclo[2.2.2]octan-1-yl)methyl)cyclohexanecarboxamide] gave an EC50 of no more than 50 nM.

`COCC(=O)N[C@H]1CC[C@H](C(=O)N(CC23CCC(c4ccc(OC)c(C)c4)(CC2)CC3)c2cc(-c3cnc(C(C)C)s3)ccn2)CC1` [Compound 9.05, (trans)-N-(4-(2-Isopropylthiazol-5-yl)pyridin-2-yl)-N-((4-(4-methoxy-3-methylphenyl)bicyclo[2.2.2]octan-1-yl)methyl)-4-(2-methoxyacetamido)cyclohexanecar-boxamide]: the EC50 is no more than 50 nM.

As to `COc1ccc(C23CCC(CN(c4cc(-c5cnc(C6CC6)s5)ccn4)C(=O)[C@H]4CC[C@H](NC(C)=O)CC4)(CC2)CC3)cc1C` [Compound 9.06, (trans)-4-Acetamido-N-(4-(2-cyclopropylthiazol-5-yl)pyridin-2-yl)-N-((4-(4-methoxy-3-methylphenyl)bicyclo[2.2.2]octan-1-yl)methyl)cyclohexanecarboxamide], the EC50 was no more than 50 nM. The result for `COCC(=O)N[C@H]1CC[C@H](C(=O)N(CC23CCC(c4ccc(OC)c(C)c4)(CC2)CC3)c2cc(-c3cnc(C4CC4)s3)ccn2)CC1` [Compound 9.07, (trans)-N-(4-(2-Cyclopropylthiazol-5-yl)pyridin-2-yl)-N-((4-(4-methoxy-3-methylphenyl)bicyclo[2.2.2]octan-1-yl)methyl)-4-(2-methoxyacetamido)cyclohexanecar-boxamide] reads no more than 50 nM; that for `COc1ccc(C23CCC(CN(c4cc(-c5cnc(C6CC6)s5)ccn4)C(=O)[C@H]4CC[C@H](NC(=O)CO)CC4)(CC2)CC3)cc1C` [Compound 9.08, (trans)-N-(4-(2-Cyclopropylthiazol-5-yl)pyridin-2-yl)-4-(2-hydroxyacetamido)-N-((4-(4-methoxy-3-methylphenyl)bicyclo[2.2.]octan-1-yl)methyl)cyclohexanecarboxamide], no more than 50 nM. The result for `COc1ccc(C23CCC(CN(c4cc(-c5coc(C6CC6)n5)ccn4)C(=O)[C@H]4CC[C@H](NC(C)=O)CC4)(CC2)CC3)cc1C` [Compound 9.09, (trans)-4-Acetamido-N-(4-(2-cyclopropyloxazol-4-yl)pyridin-2-yl)-N-((4-(4-methoxy-3-methylphenyl)bicyclo[2.2.2]octan-1-yl)methyl)cyclohexanecarboxamide] reads no more than 50 nM. The result for `COCC(=O)N[C@H]1CC[C@H](C(=O)N(CC23CCC(c4ccc(OC)c(C)c4)(CC2)CC3)c2cc(-c3coc(C4CC4)n3)ccn2)CC1` [Compound 9.10, (trans)-N-(4-(2-Cyclopropyloxazol-4-yl)pyridin-2-yl)-N-((4-(4-methoxy-3-methylphenyl)bicyclo[2.2.2]octan-1-yl)methyl)-4-(2-methoxyacetamido)cyclohexanecar-boxamide] reads no more than 50 nM.
